# Measurements published in US8268814B2, “Substituted sulfonamide compounds” (Gruenenthal GmbH, priority 2008, dated 2012).
# What was measured:
# [1] = molecular target: T1, human B1R receptor (hB1R) (Homo sapiens, UniProt P46663); experiment: Functional FLIPR Ca2+ assay on the bradykinin 1 receptor, human (hB1R CHO K1 cells); format: cell-based; conditions: test substance 10 μM; CHO K1 cells transfected with human B1R gene; agonist Lys-Des-Arg9-bradykinin at EC80; % inhibition compared with maximum achievable inhibition; read-out: B1R antagonism, human (10 μM] % inhibition
# T1 construct: expressed in transfected cells; host or cells: CHO K1 cells (Chinese hamster ovary), stably transfected
# T1 sequence (P46663 1-353): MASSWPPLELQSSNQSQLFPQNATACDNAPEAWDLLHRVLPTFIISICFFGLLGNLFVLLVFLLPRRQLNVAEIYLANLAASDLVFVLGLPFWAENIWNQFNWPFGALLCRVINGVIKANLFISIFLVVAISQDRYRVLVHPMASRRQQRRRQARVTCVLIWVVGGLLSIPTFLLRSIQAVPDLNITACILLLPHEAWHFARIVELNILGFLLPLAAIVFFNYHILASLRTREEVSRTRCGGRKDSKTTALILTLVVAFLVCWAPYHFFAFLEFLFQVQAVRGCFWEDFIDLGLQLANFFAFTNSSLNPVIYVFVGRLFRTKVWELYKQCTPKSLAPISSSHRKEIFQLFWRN
# In short: (§1)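 Stably transfected CHO K1 cells expressing human or rat B1R, Fluo-4-loaded, Ca2+ influx read by FLIPR (peak fluorescence). Compounds (10 μM for % activation) preincubated 10-20 min, then EC80 agonist added: Lys-Des-Arg9-bradykinin for human, Des-Arg9-bradykinin for rat; % inhibition versus maximal inhibition, IC50 from concentration series.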
# [2] = molecular target: T2, B1R receptor of the rat (rB1R) (Rattus norvegicus, UniProt P97583); experiment: Functional FLIPR Ca2+ assay on the bradykinin 1 receptor, rat (rB1R CHO K1 cells); format: cell-based; conditions: test substance 10 μM; CHO K1 cells transfected with rat B1R gene; agonist Des-Arg9-bradykinin at EC80; % inhibition compared with maximum achievable inhibition; read-out: B1R antagonism, rat [10 μM] % inhibition
# T2 construct: expressed in transfected cells; host or cells: CHO K1 cells (Chinese hamster ovary), stably transfected
# T2 sequence (P97583 1-337): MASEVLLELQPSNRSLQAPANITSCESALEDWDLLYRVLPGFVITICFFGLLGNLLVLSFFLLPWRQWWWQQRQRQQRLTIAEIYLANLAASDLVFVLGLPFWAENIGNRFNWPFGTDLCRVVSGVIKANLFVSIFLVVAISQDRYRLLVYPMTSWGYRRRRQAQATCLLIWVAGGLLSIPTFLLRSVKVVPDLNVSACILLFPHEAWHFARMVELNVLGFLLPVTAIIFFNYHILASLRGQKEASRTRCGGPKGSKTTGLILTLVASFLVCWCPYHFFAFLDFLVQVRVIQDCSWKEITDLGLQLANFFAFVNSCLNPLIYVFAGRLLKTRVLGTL
# In short: as §1
Structure (SMILES),inhibition at 10 µM [1] [%],inhibition at 10 µM [2] [%]
"COc1cc(C)c(S(=O)(=O)N2CCCC[C@H]2COCC(=O)N2CCc3sc(CN4CCCC4)cc3C2)c(C)c1 [Example 62, 2-[[(2S)-1-[(4-methoxy-2,6-dimethyl-phenyl)sulfonyl]-piperidin-2-yl]-methoxy]-1-[2-(pyrrolidin-1-yl-methyl)-4,5,6,7-tetrahydro-thieno[3,2-c]pyridin-5-yl]-ethanone]",100,107
"Cc1cccc(Cl)c1S(=O)(=O)N1CCCC[C@H]1COCC(=O)N1CCc2sc(CN3CCCCC3)cc2C1 [Example 59, 2-[[(2S)-1-[(2-chloro-6-methyl-phenyl)sulfonyl]-piperidin-2-yl]-methoxy]-1-[2-(piperidin-1-yl-methyl)-4,5,6,7-tetrahydro-thieno[3,2-c]pyridin-5-yl]-ethanone]",100,104
"O=C(C[C@@H](NS(=O)(=O)c1ccc2ccccc2c1)c1ccccc1)N1CCc2onc(-c3ccncc3)c2C1 [Example 03, I—N-(3-oxo-1-phenyl-3-(3-(pyridin-4-yl)-6,7-dihydroisoxazolo[4,5-c]pyridin-5(4H)-yl)propyl)naphthalene-2-sulfonamide]",83,102
"O=C(CC1CCCCN1S(=O)(=O)c1cccc(C(F)(F)F)c1)N1CCc2onc(CN3CCCCC3)c2C1 (stereo not drawn) [Example 05, 1-(3-(piperidin-1-ylmethyl)-6,7-dihydroisoxazolo[4,5-c]pyridin-5(4H)-yl)-2-(1-(3-(trifluoromethyl)phenylsulfonyl)piperidin-2-yl)ethanone]",48,27
"O=C(CC(NS(=O)(=O)c1ccc2ccccc2c1)c1ccccc1)N1CCc2nc(Cc3ccncc3)sc2C1 (racemic) [Example 42, N-(3-oxo-1-phenyl-3-(2-(pyridin-4-ylmethyl)-6,7-dihydrothiazolo[5,4-c]pyridin-5(4H)-yl)propyl)naphthalene-2-sulfonamide]",14,79
"O=C(C[C@@H](NS(=O)(=O)c1ccc2ccccc2c1)c1ccccc1)N1CCc2onc(CN3CCCCC3)c2C1 [Example 17, I—N-(3-oxo-1-phenyl-3-(3-(piperidin-1-ylmethyl)-6,7-dihydroisoxazolo[4,5-c]pyridin-5(4H)-yl)propyl)naphthalene-2-sulfonamide]",49,55
"Cc1cc(S(=O)(=O)N2CCCCC2CCC(=O)N2CCc3sccc3C2c2cccc(C(F)(F)F)c2)c(C)cc1Cl (stereo not drawn) [Example 34, 3-(1-(4-chloro-2,5-dimethylphenylsulfonyl)piperidin-2-yl)-1-(4-(3-(trifluoromethyl)phenyl)-6,7-dihydrothieno[3,2-c]pyridin-5(4H)-yl)propan-1-one]",29,57
"COc1cc(C)c(S(=O)(=O)N2CCCCC2CCC(=O)N2CCc3onc(-c4ccncc4)c3C2)c(C)c1 (stereo not drawn) [Example 01, 3-(1-(4-Methoxy-2,6-dimethylphenylsulfonyl)piperidin-2-yl)-1-(3-(pyridin-4-yl)-6,7-dihydroisoxazolo[4,5-c]pyridin-5(4H)-yl)propan-1-one]",46,98
"COc1cc(C)c(S(=O)(=O)N2c3ccccc3CC[C@H]2COCC(=O)N2CCc3sc(CN4CCCCC4)cc3C2)c(C)c1 [Example 61, 2-[[(2S)-1-[(4-methoxy-2,6-dimethyl-phenyl)sulfonyl]-1,2,3,4-tetrahydro-quinolin-2-yl]-methoxy]-1-[2-(piperidin-1-yl-methyl)-4,5,6,7-tetrahydro-thieno[3,2-c]pyridin-5-yl]-ethanone]",100,106
"COc1cc(C)c(S(=O)(=O)N2CCCCC2COCC(=O)N2CCc3onc(CN4CCOCC4)c3C2)c(C)c1 (stereo not drawn) [Example 29, 2-((1-(4-methoxy-2,6-dimethylphenylsulfonyl)piperidin-2-yl)methoxy)-1-(3-(morpholinomethyl)-6,7-dihydroisoxazolo[4,5-c]pyridin-5(4H)-yl)ethanone]",99,101
"Cc1ccc(C2c3ccsc3CCN2C(=O)C[C@@H](NS(=O)(=O)c2ccc3ccccc3c2)c2ccccc2)cc1 (stereo partly drawn) [Example 20, N-((1R)-3-oxo-1-phenyl-3-(4-p-tolyl-6,7-dihydrothieno[3,2-c]pyridin-5(4H)-yl)propyl)naphthalene-2-sulfonamide]",11,96
"COc1cc(C)c(S(=O)(=O)N(C)CCOCC(=O)N2CCc3sc(CN4CCCCC4)cc3C2)c(C)c1 [Example 28, 4-Methoxy-N,2,6-trimethyl-N-(2-(2-oxo-2-(2-(piperidin-1-yl-methyl)-6,7-dihydrothieno[3,2-c]pyridin-5(4H)-yl)ethoxy)ethyl)benzene-sulfonamide]",100,109
"COc1cc(C)c(S(=O)(=O)N(C)CCOCC(=O)N2CCc3nc(Cc4ccncc4)sc3C2)c(C)c1 [Example 39, 4-methoxy-N,2,6-trimethyl-N-(2-(2-oxo-2-(2-(pyridin-4-ylmethyl)-6,7-dihydrothiazolo[5,4-c]pyridin-5(4H)-yl)ethoxy)ethyl)benzenesulfonamide]",100,99
"COc1cc(C)c(S(=O)(=O)N2CCCCC2CCCC(=O)N2CCc3nc(-c4ccncc4)sc3C2)c(C)c1 (stereo not drawn) [Example 53, 4-(1-(4-methoxy-2,6-dimethylphenylsulfonyl)piperidin-2-yl)-1-(2-(pyridin-4-yl)-6,7-dihydrothiazolo[5,4-c]pyridin-5(4H)-yl)butan-1-one]",96,98

# Next, values leading:
inhibition at 10 µM [1] [%],inhibition at 10 µM [2] [%],Structure (SMILES)
64,104,"COc1cc(C)c(S(=O)(=O)N2CCCCC2COCC(=O)N2CCc3sccc3C2c2ccccc2C)c(C)c1 (stereo not drawn) [Example 12, 2-((1-(4-methoxy-2,6-dimethylphenylsulfonyl)piperidin-2-yl)methoxy)-1-(4-o-tolyl-6,7-dihydrothieno[3,2-c]pyridin-5(4H)-yl)ethanone]"
99,97,"COc1cc(C)c(S(=O)(=O)N2CCCCC2COCC(=O)N2CCc3nc(Cc4ccncc4)sc3C2)c(C)c1 (stereo not drawn) [Example 38, 2-((1-(4-methoxy-2,6-dimethylphenylsulfonyl)piperidin-2-yl)methoxy)-1-(2-(pyridin-4-ylmethyl)-6,7-dihydrothiazolo[5,4-c]pyridin-5(4H)-yl)ethan-1-one]"
100,94,"COc1cc(C)c(S(=O)(=O)N2CCCCC2COCC(=O)N2CCc3nc(-c4ccncc4)sc3C2)c(C)c1 (stereo not drawn) [Example 48, 2-((1-(4-methoxy-2,6-dimethylphenylsulfonyl)piperidin-2-yl)methoxy)-1-(2-(pyridin-4-yl)-6,7-dihydrothiazolo[5,4-c]pyridin-5(4H)-yl)ethan-1-one]"
100,100,"COc1cc(C)c(S(=O)(=O)N2CCCCC2COCC(=O)N2CCc3sccc3C2c2ccncc2)c(C)c1 (stereo not drawn) [Example 36, 2-((1-(4-methoxy-2,6-dimethylphenylsulfonyl)piperidin-2-yl)methoxy)-1-(4-(pyridin-4-yl)-6,7-dihydrothieno[3,2-c]pyridin-5(4H)-yl)ethanone]"
100,101,"COc1cc(C)c(S(=O)(=O)N2CCCCC2COCC(=O)N2CCc3onc(-c4ccncc4)c3C2)c(C)c1 (stereo not drawn) [Example 02, 2-((1-(4-methoxy-2,6-dimethylphenylsulfonyl)piperidin-2-yl)methoxy)-1-(3-(pyridin-4-yl)-6,7-dihydroisoxazolo[4,5-c]pyridin-5(4H)-yl)ethanone]"
16,101,"O=C(CC1CCCCN1S(=O)(=O)c1cccc(C(F)(F)F)c1)N1CCc2sccc2C1c1ccncc1 (stereo not drawn) [Example 54, 1-(4-pyridin-4-yl-4,5,6,7-tetrahydro-thieno[3,2-c]pyridin-5-yl)-2-[1-[[3-(trifluoromethyl)phenyl]sulfonyl]-piperidin-2-yl]-ethanone]"
88,103,"Cc1cc(S(=O)(=O)N2CCCCC2CCC(=O)N2CCc3sccc3C2c2ccncc2)c(C)cc1Cl (stereo not drawn) [Example 55, 3-[1-[(4-chloro-2,5-dimethyl-phenyl)sulfonyl]-piperidin-2-yl]-1-(4-pyridin-4-yl-4,5,6,7-tetrahydro-thieno[3,2-c]pyridin-5-yl)-propan-1-one]"
